Laboratory results: patent US6727237B2, “Inhibitors of bacterial NAD synthetase” (priority 1998, dated 2004)

Biological target: T1, bacterial NAD synthetase enzyme (Bacillus subtilis, UniProt P08164)
T1 sequence (P08164 2-272 limits assumed): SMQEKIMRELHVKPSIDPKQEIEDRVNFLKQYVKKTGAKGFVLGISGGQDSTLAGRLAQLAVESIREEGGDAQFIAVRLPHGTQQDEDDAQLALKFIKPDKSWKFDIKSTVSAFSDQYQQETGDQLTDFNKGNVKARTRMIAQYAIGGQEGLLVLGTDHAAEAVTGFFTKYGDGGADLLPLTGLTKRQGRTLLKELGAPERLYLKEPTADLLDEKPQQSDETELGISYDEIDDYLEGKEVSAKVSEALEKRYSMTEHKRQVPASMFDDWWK
Assay: biochemical
Type: biochemical
Details: compound at 0.2 mM (Table 312A)

| Compound | % Inhibition |
| --- | --- |
| COc1ccc2[nH]c(CCCCCC[n+]3ccc4ccccc4c3)cc2c1 [Compound 591] | 18.59% |
| O=C(O)c1ccc2[nH]c(CCC[n+]3ccccc3)cc2c1 [Compound 384] | 4.10% |

Same assay, conditions: compound at 0.25 mM

| Compound | % Inhibition |
| --- | --- |
| C[n+]1cccc(C(=O)OCCCCCCCCc2cc3cc(C(=O)c4ccccc4)ccc3[nH]2)c1 [Compound 927] | 93.1% |

Test system: Staphylococcus epidermitis
Assay: Bacterial growth inhibition screen in LB media (absorbance 595 nm), percent inhibition
Details: S. epidermitis; concentration screened 10 uM

| Compound | % Inhibition |
| --- | --- |
| O=C(OCCCCCCCCc1cc2cc(Oc3ccccc3)ccc2[nH]1)c1ccncc1 [Compound 701] | 3.88% |
| C[n+]1cc(C(=O)OCCCCn2ccc3cc(OCc4ccccc4)ccc32)cc2ccccc21 [Compound 825] | 83.13% |
| O=C(OCCCCCCCc1cc2cc(C(F)(F)F)ccc2[nH]1)c1cccnc1 [Compound 655] | 11.51% |
| O=C(OCCCCc1cc2cc(Oc3ccccc3)ccc2[nH]1)c1cccnc1 [Compound 684] | 10.83% |
| CN(C)c1ccc(C(=O)OCCCCCCCCc2cc3cc([N+](=O)[O-])ccc3[nH]2)cc1 [Compound 727] | 42.23% |
| O=C(OCCCCCCCc1cc2cc(C(=O)c3ccccc3)ccc2[nH]1)c1ccncc1 [Compound 709] | 12.94% |
| CC(C)c1ccc2[nH]c(CCCCCCCOC(=O)c3ccccc3-c3ccccc3)cc2c1 [Compound 631] | 12.19% |
| c1ccc(Oc2ccc3[nH]c(CCC[n+]4cccc5ccccc54)cc3c2)cc1 [Compound 456] | 3.69% |
| c1ccc(Oc2ccc3[nH]c(CCCCC[n+]4ccccc4)cc3c2)cc1 [Compound 350] | 7.59% |
| CN(C)c1cccc(C(=O)OCCCCCCCc2cc3cc(Oc4ccccc4)ccc3[nH]2)c1 [Compound 616] | 5.59% |
| CC(C)c1ccc2[nH]c(CCCCCCCOC(=O)C(c3ccccc3)c3ccccc3)cc2c1 [Compound 664] | 3.88% |
| C[N+](C)(C)c1cccc(C(=O)OCCCCn2ccc3cc(OCc4ccccc4)ccc32)c1 [Compound 805] | 50.87% |
| CC(C)c1ccc2[nH]c(CCCCCCCCOC(=O)c3ccncc3)cc2c1 [Compound 704] | 19.07% |
| C[n+]1cccc(C(=O)OCCCCn2ccc3cc([N+](=O)[O-])ccc32)c1 [Compound 863] | 4.72% |
| O=C(OCCCCCCCc1cc2cc(Oc3ccccc3)ccc2[nH]1)c1ccccc1-c1ccccc1 [Compound 622] | 7.97% |
| CC(C)c1ccc2[nH]c(CCCCCCCCOC(=O)c3cccnc3)cc2c1 [Compound 668] | 3.07% |
| FC(F)(F)c1ccc2cc(CCCCCCC[n+]3cccc4ccccc43)[nH]c2c1 [Compound 400] | 5.50% |
| CC(=O)c1ccc2[nH]c(CCCCCCCCOC(=O)c3ccncc3)cc2c1 [Compound 707] | 3.61% |
| O=C(OCCCCCCCCc1cc2ccc(C(F)(F)F)cc2[nH]1)c1cccnc1 [Compound 683] | 9.26% |
| CC(=O)c1ccc2[nH]c(CCCCOC(=O)c3cccnc3)cc2c1 [Compound 690] | 10.01% |
| O=C(OCCCCCCCCc1cc2cc([N+](=O)[O-])ccc2[nH]1)c1ccccc1-c1ccccc1 [Compound 729] | 8.24% |
| Fc1cc(F)c2[nH]c(CCCCCCC[n+]3cccc4ccccc43)cc2c1 [Compound 412] | 7.73% |

| Compound | % Inhibition |
| --- | --- |
| CN(C)c1ccc(C(=O)OCCCCCCCc2cc3cc(C(=O)c4ccccc4)ccc3[nH]2)cc1 [Compound 646] | 1.09% |
| CC(=O)c1ccc2[nH]c(CCCCCCCOC(=O)c3cccc(N(C)C)c3)cc2c1 [Compound 634] | 10.08% |
| CC(C)c1ccc2[nH]c(CCCCCCCOC(=O)c3ccncc3)cc2c1 [Compound 703] | 4.29% |
| COC(=O)c1ccc2c(ccn2CCC[n+]2cccc(C(=O)OC)c2)c1 [Compound 171] | 15.33% |
| O=C(OCCCCc1cc2cc(C(=O)c3ccccc3)ccc2[nH]1)c1cccnc1 [Compound 693] | 14.37% |
| O=C(OCCCCn1ccc2cc([N+](=O)[O-])ccc21)c1cnc2ccccc2c1 [Compound 830] | 42.99% |
| O=[N+]([O-])c1cc([N+](=O)[O-])c2[nH]c(CCCCC[n+]3cccc4ccccc43)cc2c1 [Compound 416] | 2.09% |
| O=C(OCCCCc1cc2ccc(C(F)(F)F)cc2[nH]1)c1cccnc1 [Compound 681] | 4.22% |
| O=C(OCCCCCCCc1cc2cc(Oc3ccccc3)ccc2[nH]1)C(c1ccccc1)c1ccccc1 [Compound 658] | 1.43% |
| CN(C)c1ccc(C(=O)OCCCCCCCc2cc3cc(C(F)(F)F)ccc3[nH]2)cc1 [Compound 610] | 33.51% |
| C[n+]1cc(C(=O)OCCCCCCCCn2ccc3cc(OCc4ccccc4)ccc32)cc2ccccc21 [Compound 829] | 98.64% |
| O=C(CCc1cccnc1)OCCCCCCCCc1cc2cc([N+](=O)[O-])ccc2[nH]1 [Compound 728] | 13.28% |
| c1ccc2[nH]c(CCC[n+]3cccc4ccccc43)cc2c1 [Compound 390] | 5.92% |
| CC(=O)c1ccc2[nH]c(CCCCCCCCOC(=O)c3cccnc3)cc2c1 [Compound 674] | 7.70% |
| COc1ccc2c(ccn2CCCCOC(=O)c2ccc([N+](C)(C)C)cc2)c1 [Compound 780] | 4.78% |
| O=C(OCCCCCCCc1cc2cc(C(F)(F)F)ccc2[nH]1)C(c1ccccc1)c1ccccc1 [Compound 652] | 2.52% |
| O=C(OCCCCCCCCc1cc2cc(Oc3ccccc3)ccc2[nH]1)c1cccnc1 [Compound 686] | 22.14% |
| O=C(OCCCCCCCCc1cc2cc(C(=O)c3ccccc3)ccc2[nH]1)c1cccnc1 [Compound 680] | 22.48% |
| C[n+]1cccc(C(=O)OCCCCCCCCCc2cc3cc([N+](=O)[O-])ccc3[nH]2)c1 [Compound 281] | 84.23% |
| CC(C)c1ccc2[nH]c(CCCCOC(=O)c3cccnc3)cc2c1 [Compound 687] | 14.44% |
| O=C([O-])c1ccc[n+](CCCn2c(C(=O)O)cc3ccccc32)c1 [Compound 191] | 46.32% |
| CC(C)c1ccc2[nH]c(CCCCCCCOC(=O)c3cccc(N(C)C)c3)cc2c1 [Compound 625] | 7.77% |

Same assay, conditions: S. epidermitis; concentration screened 100 uM

| Compound | % Inhibition |
| --- | --- |
| O=C(OCCCCc1cc2cc(Oc3ccccc3)ccc2[nH]1)C(c1ccccc1)c1ccccc1 [Compound 657] | 37.12% |
| CC(C)c1ccc2[nH]c(CCCCCCCCOC(=O)c3ccccc3-c3ccccc3)cc2c1 [Compound 632] | 22.42% |
| CN(C)c1ccc(C(=O)OCCCCCCCCc2cc3cc(C(=O)c4ccccc4)ccc3[nH]2)cc1 [Compound 647] | 13.38% |
| O=C(OCCCCc1cc2cc(Oc3ccccc3)ccc2[nH]1)c1ccccc1-c1ccccc1 [Compound 621] | 11.75% |
| CC(=O)c1ccc2[nH]c(CCCCCCCCOC(=O)c3ccccc3-c3ccccc3)cc2c1 [Compound 641] | 8.10% |
| CN(C)c1ccc(C(=O)OCCCCc2cc3cc(Oc4ccccc4)ccc3[nH]2)cc1 [Compound 618] | 11.06% |
| O=C(OCCCCc1cc2cc(C(F)(F)F)ccc2[nH]1)C(c1ccccc1)c1ccccc1 [Compound 651] | 13.51% |
| CC(C)c1ccc2[nH]c(CCCCOC(=O)c3cccc(N(C)C)c3)cc2c1 [Compound 624] | 19.16% |
| CN(C)c1ccc(C(=O)OCCCCc2cc3cc(C(F)(F)F)ccc3[nH]2)cc1 [Compound 609] | 7.35% |
| O=C(c1ccccc1)c1ccc2[nH]c(CCCCOC(=O)C(c3ccccc3)c3ccccc3)cc2c1 [Compound 675] | 11.37% |
| CC(C)c1ccc2[nH]c(CCCCCCCCOC(=O)C(c3ccccc3)c3ccccc3)cc2c1 [Compound 665] | 12.75% |
| O=C(OCCCCc1cc2cc(C(F)(F)F)ccc2[nH]1)c1ccccc1-c1ccccc1 [Compound 612] | 10.24% |
| O=C(c1ccccc1)c1ccc2[nH]c(CCCCCCCCOC(=O)c3ccccc3-c3ccccc3)cc2c1 [Compound 650] | 7.73% |
| CC(=O)c1ccc2[nH]c(CCCCOC(=O)c3cccc(N(C)C)c3)cc2c1 [Compound 633] | 5.53% |
| CC(=O)c1ccc2[nH]c(CCCCCCCCOC(=O)C(c3ccccc3)c3ccccc3)cc2c1 [Compound 671] | 5.72% |
| CC(C)c1ccc2[nH]c(CCCCCCCCOC(=O)c3cccc(N(C)C)c3)cc2c1 [Compound 626] | 14.26% |
| CN(C)c1cccc(C(=O)OCCCCc2cc3cc(C(F)(F)F)ccc3[nH]2)c1 [Compound 606] | 9.17% |
| CC(=O)c1ccc2[nH]c(CCCCCCCCOC(=O)c3cccc(N(C)C)c3)cc2c1 [Compound 635] | 7.47% |
| CC(C)c1ccc2[nH]c(CCCCCCCCOC(=O)c3ccc(N(C)C)cc3)cc2c1 [Compound 629] | 6.66% |
